Results taken from patent US9326515B2, “Fungicidal 3-[(1,3-thiazol-4-ylmethoxyimino)(phenyl)methyl]-2-substituted-1,2,4-oxadiazol-5(2H)-one derivatives” (BAYER INTELLECTUAL PROPERTY GMBH, priority 2011, dated 2016).

Experiments:
Alternaria brassicae = test: Example B: in vivo preventive test on Alternaria brassicae (leaf spot on radish); details: 500 ppm, spray on radish plants, contaminated after 24 hours, grading 6 days after contamination vs control plants
Description: (§1) The active ingredients tested are prepared by homogenization in a mixture of acetone/tween/DMSO, and then diluted with water to obtain the desired active material concentration.
Radish plants (“Pernod Clair” variety), sown in starter cups on a 50/50 peat soil-pozzolana substrate and grown at 17° C., are treated at the cotyledon stage by spraying with the active ingredient prepared as described above. Plants, used as controls, are treated with the mixture of acetone/tween/DMSO/water not containing the active material.
After 24 hours, the plants are contaminated by spraying the cotyledons with an aqueous suspension of Alternaria brassicae spores (50 000 spores per ml). The spores are collected from a 15-day-old culture. The contaminated radish plants are incubated at 20° C. and at 100% relative humidity.
Grading (% of efficacy) is carried out 6 days after the contamination, in comparison with the control plants.
(§2) Under these conditions, good (at least 70%) or total protection is observed at a dose of 500 ppm with the following compounds: […]

Phytophthora infestans [1] = format: in vivo; details: 500 ppm, spray on tomato plants, contaminated after 24 hours, grading 5 days after contamination vs control plants
[2] = pH 2.7
Septoria tritici = test: Example G: in vivo preventive test on Septoria tritici (leaf spot on wheat); details: 500 ppm, spray on wheat plants, contaminated after 24 hours, grading 24 days after contamination vs control plants
Description: as §1
Wheat plants (“Scipion” variety), sown in starter cups on a 50/50 peat soil-pozzolana substrate and grown at 22° C., are treated at the 1-leaf stage (10 cm height) by spraying with the active ingredient prepared as described above. Plants, used as controls, are treated with the mixture of acetone/tween/DMSO/water not containing the active material.
After 24 hours, the plants are contaminated by spraying the leaves with an aqueous suspension of cryopreserved Septoria tritici spores (500 000 spores per ml). The contaminated wheat plants are incubated for 72 hours at 18° C. and at 100% relative humidity, and then for 21 days at 90% relative humidity.
Grading (% of efficacy) is carried out 24 days after the contamination, in comparison with the control plants.
as §2

Phytophthora infestans [3] = format: in vivo; details: 100 ppm of active ingredient, spray on young tomato plants, inoculated one day after treatment, evaluated 7 days after inoculation
Sphaerotheca fuliginea = test: Example D: in vivo preventive test on Sphaerotheca fuliginea (powdery mildew on cucurbits); details: 500 ppm, spray on gherkin plants, contaminated after 24 hours, grading 12 days after contamination vs control plants
Description: The active ingredients tested are prepared by homogenization in a mixture of acetone/tween/DMSO and then diluted with water to obtain the desired active material concentration.
Gherkin plants (“Vert petit de Paris” variety), sown in starter cups on a 50/50 peat soil-pozzolana substrate and grown at 24° C., are treated at the Z11 cotyledon stage by spraying with the active ingredient prepared as described above. Plants, used as controls, are treated with the mixture of acetone/tween/DMSO/water not containing the active material.
After 24 hours, the plants are contaminated by spraying the cotyledons with an aqueous suspension of Sphaerotheca fuliginea spores (100 000 spores per ml). The spores are collected from infected plants. The contaminated gherkin plants are incubated at about 20° C. and at 70-80% relative humidity.
Grading (% of efficacy) is carried out 12 days after the contamination, in comparison with the control plants.
as §2

Pyrenophora teres = test: Example E: in vivo preventive test on Pyrenophora teres (net blotch on barley); details: 500 ppm, spray on barley plants, contaminated after 24 hours, grading 14 days after contamination vs control plants
Description: as §1
Barley plants (“Plaisant” variety), sown in starter cups on a 50/50 peat soil-pozzolana substrate and grown at 22° C., are treated at the 1-leaf stage (10 cm height) by spraying with the active ingredient prepared as described above. Plants, used as controls, are treated with the mixture of acetone/tween/DMSO/water not containing the active material.
After 24 hours, the plants are contaminated by spraying the leaves with an aqueous suspension of Pyrenophora teres spores (12 000 spores per ml). The spores are collected from a 12-day-old culture. The contaminated barley plants are incubated for 48 hours at 20° C. and at 100% relative humidity, and then for 12 days at 20° C. at 70-80% relative humidity.
Grading (% of efficacy) is carried out 14 days after the contamination, in comparison with the control plants.
as §2

Compound	% efficacy (Alternaria brassicae) [%]	% efficacy (Phytophthora infestans [1]) [%]	LogP [2]	% efficacy (Septoria tritici) [%]	Eff. % (Phytophthora infestans [3]) [%]	% efficacy (Sphaerotheca fuliginea) [%]	% efficacy (Pyrenophora teres) [%]
COc1cccc(/C(=N/OCc2csc(NC(=O)C3CCc4ccccc4O3)n2)c2nc(=O)on2C)c1 (racemic) [Example 35]	100	90	3.44	–	–	–	–
Cn1oc(=O)nc1C(=NOCc1csc(NC(=O)OCCOc2ccccc2)n1)c1ccccc1 [Example 21]	–	98	3.19	75	92	75	80
CC(COc1ccccc1)OC(=O)Nc1nc(CON=C(c2ccccc2)c2nc(=O)on2C)cs1 (centres unmarked) [Example 28]	–	97	3.46	75	92	–	85
